This is an account of results in US7064119B2, “Fused bicyclic pyrimidine derivatives” (Kyorin Pharmaceutical Co., Ltd., priority 2002, dated 2006).

One test has as its target T1, NK1 receptor (Cavia porcellus, UniProt P30547).
T1 construct: from tissue; host or cells: isolated guinea pig ileum
Nature of the test: Test for NK1 receptor antagonist: substance P concentration-response in isolated guinea pig ileum, Schild analysis. Conditions: substance P-induced contraction, 10 min pretreatment, method of Schild. As to the method:
(1) Test for NK1 Receptor Antagonist
The method used was according to the method proposed by S. Dion et al.(Dion et al., Life Sciences 41(1987): 2269), to which minor modifications were made.
Guinea pigs were stunned by a blow on the head and were exsanguinated from the carotid artery and ilea were isolated. The ileum was mounted in an organ bath containing Tyrode's solution which was maintained at 32° C. and gased with 95% O2 and 5% CO2. The ileum was subjected to a resting tension of 1-gram and allowed to equilibrate for 20 minutes before the experiment was started. As a control, a concentration-response curve for substance P in the absence of any of test compounds was used. The NK1 receptor antagonist activity of each test compound was determined by a concentration-response curve obtained by pretreating at least three concentrations of the test compound for 10 minutes and subsequently applying substance P in a cumulative manner. The Kb values were determined according to the method of Schild and the results are shown in Table 1 (Schild Brit. J. Pharmacol. 14(1959): 48).
The composition of the Tyrode's solution was as follows: NaCl=136.9, KCl=2.7, CaCl2·2H2O=2.5, MgCl2·6H2O=1.0, NaH2PO4·2H2O=0.4, NaHCO3=11.9, glucose=11.1 (mmol/L)

A further test deals with Guinea pigs. Nature of the test: Cystometry test on guinea pigs (spinal cord cut), effective bladder capacity. The settings on record: guinea pig. The class given is in vivo. The text has this: (2) Cystometry Test on Guinea Pigs
The method used was according to the method proposed by J S. Peterson et al. (Peterson J S. et al., J. Pharmacol. Methods 21(1989): 231), to which minor modifications were made.
Guinea pigs were anesthetized with halothane and the tenth thoracic spinal cord was cut in each animal. Subsequently, both ureters were ligated and were cut on the kidney-side. Polyethylene catheters were inserted into the bladder to provide an injection pathway for physiological saline and a pathway for the measurement of intravesical pressure. Each animal was restricted in a Ballman cage and was left for more than 2 hours. Subsequently, room-temperature saline was injected through the bladder catheter into the bladder at a rate of 6 mL/hr to conduct a cystometry test. Once the effective bladder capacity was stabilized, a test compound was intravenously administered into the jugular vein. The effective bladder capacity is defined as the volume of saline injected from one urination to the next. The effect of each test compound was determined as the increase in the average bladder volume, which was determined based on the average bladder volume measured 30 minutes prior to the administration of the test compound and the average bladder volume measured every 30 minutes after the administration of the test compound.

T1 sequence (P30547 whole entry): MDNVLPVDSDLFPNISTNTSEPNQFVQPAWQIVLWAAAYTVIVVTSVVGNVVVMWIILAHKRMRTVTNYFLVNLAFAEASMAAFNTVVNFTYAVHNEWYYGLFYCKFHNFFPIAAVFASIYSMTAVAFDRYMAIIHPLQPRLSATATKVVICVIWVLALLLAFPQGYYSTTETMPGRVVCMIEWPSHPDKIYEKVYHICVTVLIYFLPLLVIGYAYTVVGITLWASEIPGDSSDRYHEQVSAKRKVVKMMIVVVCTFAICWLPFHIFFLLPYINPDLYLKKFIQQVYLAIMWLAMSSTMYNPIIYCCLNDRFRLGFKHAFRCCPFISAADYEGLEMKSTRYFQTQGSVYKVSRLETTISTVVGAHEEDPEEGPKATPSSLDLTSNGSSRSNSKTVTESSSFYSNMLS

Consider `CC(=O)N1CCN(c2nc3c(c(-c4ccccc4C)n2)C(=O)N(Cc2cc(C(F)(F)F)cc(C(F)(F)F)c2)CCCN3)CC1` [Compound of Example 4, 2-(4-acetylpiperazine-1-yl)-6-[3,5-bis(trifluoromethyl)benzyl]-5,6,7,8,9,10-hexahydro-4-(2-methylphenyl)-5-oxopyrimido[4,5-b][1,5]diazocine], for which the Kb on NK1 receptor was 0.148 nM. Besides, the “Increase in bladder capacity (%)” value with Guinea pigs (dose 0.3 mg/kg i.v.) stood at 43.0%. Consider `CC(=O)N1CCN(c2nc(-c3ccccc3C)c3c(n2)N(C)CCCN(Cc2cc(C(F)(F)F)cc(C(F)(F)F)c2)C3=O)CC1` [Compound of Example 20], for which the Kb on NK1 receptor stood at 0.324 nM. For `Cc1ccccc1-c1nc(N2CCOCC2)nc2c1C(=O)N(Cc1cc(C(F)(F)F)cc(C(F)(F)F)c1)CCCN2C` [Compound of Example 21, 6-[3,5-bis(trifluoromethyl)benzyl]-5,6,7,8,9,10-hexahydro-10-methyl-4-(2-methylphenyl)-2-(morpholine-4-yl)-5-oxopyrimido(4,5-b][1,5]diazocine], the antagonist dissociation constant (Kb) on NK1 receptor stood at 0.42 nM.

`CC(=O)N1CCN(c2nc(-c3ccccc3C)c3c(n2)N(C(C)=O)CCCN(Cc2cc(C(F)(F)F)cc(C(F)(F)F)c2)C3=O)CC1` [Compound of Example 22, 10-acetyl-2-(4-acetylpiperazine-1-yl)-6-[3,5-bis(trifluoromethyl)benzyl]-5,6,7,8,9,10-hexahydro-4-(2-methylphenyl)-5-oxopyrimido[4,5-b][1,5]diazocine]: the Kb on NK1 receptor is 0.0794 nM.

With `COc1ccccc1-c1nc(N2CCS(=O)(=O)CC2)nc2c1C(=O)N(Cc1cc(C(F)(F)F)cc(C(F)(F)F)c1)CCCN2` [Compound of Example 28, 6-[3,5-bis(trifluoromethyl)benzyl]-2-(1,1-dioxothiomorpholine-4-yl)-5,6,7,8,9,10-hexahydro-4-(2-methoxyphenyl)-5-oxopyrimido[4,5-b][1,5]diazocine], the Kb at NK1 receptor is 0.169 nM.

Consider `Cc1ccc(-c2c3n(c(=O)c4ncccc24)CC[C@@H](C)CN(Cc2cc(C(F)(F)F)cc(C(F)(F)F)c2)C3=O)cc1` [TAK-637], for which, on NK1 receptor, the antagonist equilibrium constant (Kb) came to 0.269 nM. Also, the results for the “Increase in bladder capacity (%)” value with Guinea pigs (dose 0.3 mg/kg i.v.), with Guinea pigs (dose 1 mg/kg i.v.) and in the test on Guinea pigs (dose 3 mg/kg i.v.) were 12.0%, 23.8% and 20.5%, respectively.
